Source: US20120171123A1, “USES AND COMPOSITIONS FOR TREATMENT OF RHEUMATOID ARTHRITIS” (priority 2006, published 2012)

Key:
[1] = test system: patients with long-standing RA; assay: Study I: serious adverse events and withdrawals; conditions: 262 patients
[2] = test system: patients with RA who had failed prior treatment with infliximab; assay: Adalimumab after failed infliximab (16-week study): DAS28; assay type: in vivo, human; conditions: for Change in DAS28, mean change from baseline: 16 wk
From the text: (§1) Patients eligible to participate in the study included those with long-standing, moderate to severe RA who had terminated infliximab therapy because of lack or loss of efficacy and/or intolerance/side effects. […] Follow-up visits for safety and efficacy monitoring were scheduled at 2, 8, and 16 weeks. […] Efficacy parameters included TJC28 and SJC28; DAS28; ACR20, ACR50 Response; Moderate EULAR response; and HAQ. Subgroup analysis by reason for discontinuation included: • in case of discontinuation due to lack or loss of efficacy, patients were counted in the corresponding group regardless of additional cause of intolerance. • The subgroup “Discontinuation due to intolerance” was exclusive.

[3] = test system: patients with RA who had failed prior treatment with infliximab; assay: Adalimumab after failed infliximab: TJC28 and SJC28; assay type: in vivo, human; conditions: 16 wk
From the text: as §1

[4] = test system: patients with long-standing RA; assay: Study 4: CRP; assay type: in vivo, human
From the text: Percentage change of mean clinical improvement from baseline us describe in Table 15 below.

[5] = test system: patients with long-standing RA; assay: Study I open-label extension (adalimumab 40 mg eow + MTX): ACR response; assay type: in vivo, human; conditions: 5 years, observed
Description: (§2) 217 patients who completed the blinded period and participated in the extension trial for a minimum of 6 months were allowed to adjust MTX and/or corticosteroid dosages at the discretion of the principal investigators. Dose tapering was conducted according to standard medical practice with respect to controlling disease activity
(§3) Demographic data, age, gender, disease duration, rheumatoid factor and changes in TJC, SJC, CRP, DAS28, HAQ and ACR responses were analysed. Baseline demographics and disease characteristics as well as efficacy measures at last visit (ACR 20/50/70, DAS28, HAQ) were compared between the groups. All patients, including those who discontinued from the trial, were evaluated
(§4) Patients were eligible to enroll in Study I if they met ACR criteria for diagnosis of RA. […] Efficacy outcomes were assessed at pre-specified intervals as observed data. Treatment time was calculated beginning with the first subcutaneous injection of adalimumab at any dose, excluding time on placebo. Improvements in signs and symptoms of RA were evaluated for ACR20, ACR50, and ACR70 criteria, 28-joint count Disease Activity Score (DAS28) using the CRP-based formula, and Health Assessment Questionnaire (HAQ). Patients with changes in dosage of MTX or corticosteroids were evaluated for at least 6 months; these patients were eligible for the extension study for at least 6 months and were eligible for discretionary dose tapering. Patients were monitored for adverse events (AEs) during the entire length of the study, from signed informed consent through last visit.

[6] = test system: patients with long-standing RA; assay: Study I open-label extension: HAQ; assay type: in vivo, human; conditions: 5 years
Description: as §3, §4

[7] = test system: patients with severe RA who had failed MTX; assay: Study 2 / Study 3 OLE (adalimumab monotherapy): SF-36; assay type: in vivo, human; conditions: within 26 weeks
Description: In addition to the SF-36 instrument, the Health Utilities Index Mark 3 (HUI3) and the Functional Assessment of Chronic Illness Therapy-Fatigue (FACIT-F) questionnaires were administered at baseline, 12 weeks, and the end of the study.
The HUI3 scale is 0-1, with “1” denoting perfect health and “0” denoting death. FACIT-F scores range from 0-52, with higher scores representing less fatigue. The SF-36 includes one multi-item scale that assesses eight different dimensions of health, including physical and psychosocial components. For each dimension a value of 0-100 is given, with higher numbers representing less impairment. Changes in HUI3 of ≧0.03, in FACIT-F of ≧4 and in SF-36 of ≧4.4 (physical subscales) and ≧3.1 (mental subscales) are considered clinically meaningful.
In addition to clinical parameters, the SF-36 instrument, the Health Utilities Index Mark 3 (HUI3), and the Functional Assessment of Chronic Illness Therapy-Fatigue (FACIT-F) questionnaires were administered at baseline, and at weeks 12, 26, 50, 74, 98, 122, 146 and 170, respectively. The HUI3 scale ranges from 0-1, with “1” denoting perfect health and “0” denoting death. FACIT-F scores range from 0-52, with higher scores representing less fatigue. SF-36 scores range from 0-100 with higher scores indicating improvement in HRQoL. […]

[8] = test system: patients with long-standing RA; assay: Study I open-label extension: DAS28 and clinical remission; assay type: in vivo, human; conditions: for patients in clinical remission (DAS28<2.6) / mean change from baseline in DAS28: last visit
Description: as §2, §3, §4

[9] = all reasons for infliximab withdrawal (N=37)
[10] = no response to infliximab (N=13)
[11] = loss of response to infliximab (N=19)

## adalimumab: human anti-TNF mAb (HUMIRA, Abbott Laboratories), described in U.S. Pat. No. 6,090,382 as D2E7
[1]
  withdrawals for lack of efficacy: 8%
[2]; [9]
  Change in DAS28, mean change from baseline: −1.6
[2]; infliximab intolerance (N=5)
  Change in DAS28, mean change from baseline: −1.4
[2]; [10]
  Change in DAS28, mean change from baseline: −1.0
[2]; week 16
  maximum change in DAS28: −4.7
[2]; week 16, completers (21 of 37)
  patients with a decrease in DAS28 of ≧1.2: 57%
[3]; [9]
  Change in SJC (0-28), mean change from baseline: −5.2
  Change in TJC (0-28), mean change from baseline: −7.4
[3]; infliximab intolerance (N=5)
  Change in SJC (0-28), mean change from baseline: −7.8
  Change in TJC (0-28), mean change from baseline: −10.0
[3]; [11]
  Change in SJC (0-28), mean change from baseline: −6.1
  Change in TJC (0-28), mean change from baseline: −8.2
[3]; [10]
  Change in SJC (0-28), mean change from baseline: −2.8
  Change in TJC (0-28), mean change from baseline: −5.1
[4]; 6 months
  CRP, % change of mean clinical improvement from baseline: 14%
[4]; 12 months
  CRP, % change of mean clinical improvement from baseline: 33%
[4]; 24 months
  CRP, % change of mean clinical improvement from baseline: 29%
[4]; 36 months
  CRP, % change of mean clinical improvement from baseline: 28%
[4]; 48 months
  CRP, % change of mean clinical improvement from baseline: 37%
[5]
  ACR20: 76%
  ACR50: 64%
  ACR70: 39%
[6]
  patients with no physical limitations (HAQ=0): 28%
[7]
  SF-36 scores of all subscales/domains: clinically meaningful improvements
[8]; 5 years
  patients with DAS28<2.6: 52%
[8]; mtx and steroid decrease
  patients in clinical remission (DAS28<2.6): 24%
[8]; mtx decrease
  mean change from baseline in DAS28: −2.7
  patients in clinical remission (DAS28<2.6): 7.2%
[8]; mtx increase
  mean change from baseline in DAS28: −1.7
  patients in clinical remission (DAS28<2.6): 6.7%
[8]; mtx no change
  mean change from baseline in DAS28: −2.5
  patients in clinical remission (DAS28<2.6): 15.5%
[8]; mtx+steroid decrease
  mean change from baseline in DAS28: −3.0
[8]; steroid decrease
  mean change from baseline in DAS28: −2.9
  patients in clinical remission (DAS28<2.6): 21.6%
[8]; steroid no change
  mean change from baseline in DAS28: −2.5
  patients in clinical remission (DAS28<2.6): 17.2%
